# Source: ChEMBL document CHEMBL1201862, “PubChem BioAssay data set” (2004)
#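 Following 48 hours of exposure in 96-well plates, responses at five concentrations were used to interpolate endpoints linearly. GI50: concentration for 50% inhibition of growth.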 Activity calls are given as the source filed them. No stated cut-off is given here; in the data, active = GI50 up to about 1.1 µM and inactive = higher.
# What was measured:
# Assay in all cases: NCI tumour cell line growth inhibition, 48 h
# 786-0 = system: 786-0
# A498 = system: A498
# A549 = system: A549
# ACHN = system: ACHN
# CCRF-CEM = system: CCRF-CEM
# COLO 205 = system: COLO 205
# DLD-1 = system: DLD-1
# DMS-114 = system: DMS-114
# DMS-273 = system: DMS-273
# EKVX = system: EKVX
# HCT-116 = system: HCT-116
# HCT-15 = system: HCT-15
# HL-60 = system: HL-60
# HOP-18 = system: HOP-18
# HOP-62 = system: HOP-62
# HOP-92 = system: HOP-92
# HT-29 = system: HT-29
# IGROV-1 = system: IGROV-1
# K562 = system: K562
# KM-20L2 = system: KM-20L2
# KM12 = system: KM12
# LOX IMVI = system: LOX IMVI
# LXFL 529 = system: LXFL 529
# M14 = system: M14
# M19-MEL = system: M19-MEL
# MOLT-4 = system: MOLT-4
# NCI-H226 = system: NCI-H226
# NCI-H23 = system: NCI-H23
# NCI-H460 = system: NCI-H460
# NCI-H522 = system: NCI-H522
# OVCAR-4 = system: OVCAR-4
# OVCAR-5 = system: OVCAR-5
# OVCAR-8 = system: OVCAR-8
# RPMI-8226 = system: RPMI-8226
# RXF 393 = system: RXF 393
# SF-268 = system: SF-268
# SF-295 = system: SF-295
# SF-539 = system: SF-539
# SK-MEL-28 = system: SK-MEL-28
# SK-MEL-5 = system: SK-MEL-5
# SN12C = system: SN12C
# SNB-19 = system: SNB-19
# SNB-75 = system: SNB-75
# SNB-78 = system: SNB-78
# SR = system: SR
# SW-620 = system: SW-620
# U-251 = system: U-251
# UACC-257 = system: UACC-257
# UACC-62 = system: UACC-62
# CAKI-1 = system: CAKI-1
# HCC 2998 = system: HCC 2998
# SK-MEL-2 = system: SK-MEL-2
# SK-OV-3 = system: SK-OV-3
# TK-10 = system: TK-10
# UO-31 = system: UO-31
# XF498 = system: XF498
# Malme-3M = system: Malme-3M
# OVCAR-3 = system: OVCAR-3
smiles,measurement,setting,value
Cn1nc(-c2cccc(-c3nn(C)/c(=N\CCO)s3)n2)s/c1=N/CCO,GI50,786-0,> 100 µM (inactive)
same,GI50,A498,> 100 µM (inactive)
same,GI50,A549,> 100 µM (inactive)
same,GI50,ACHN,> 100 µM (inactive)
same,GI50,CCRF-CEM,> 100 µM (inactive)
same,GI50,COLO 205,> 100 µM (inactive)
same,GI50,DLD-1,> 100 µM (inactive)
same,GI50,DMS-114,> 100 µM (inactive)
same,GI50,DMS-273,> 100 µM (inactive)
same,GI50,EKVX,> 100 µM (inactive)
same,GI50,HCT-116,> 100 µM (inactive)
same,GI50,HCT-15,> 100 µM
same,GI50,HL-60,> 100 µM (inactive)
same,GI50,HOP-18,> 100 µM (inactive)
same,GI50,HOP-62,> 100 µM (inactive)
same,GI50,HOP-92,> 100 µM (inactive)
same,GI50,HT-29,> 100 µM (inactive)
same,GI50,IGROV-1,> 100 µM (inactive)
same,GI50,K562,> 100 µM (inactive)
same,GI50,KM-20L2,> 100 µM (inactive)
same,GI50,KM12,> 100 µM (inactive)
same,GI50,LOX IMVI,> 100 µM (inactive)
same,GI50,LXFL 529,> 100 µM (inactive)
same,GI50,M14,> 100 µM (inactive)
same,GI50,M19-MEL,> 100 µM (inactive)
same,GI50,MOLT-4,> 100 µM (inactive)
same,GI50,NCI-H226,> 100 µM (inactive)
same,GI50,NCI-H23,> 100 µM (inactive)
same,GI50,NCI-H460,> 100 µM (inactive)
same,GI50,NCI-H522,36.5 µM (inactive)
same,GI50,OVCAR-4,> 100 µM (inactive)
same,GI50,OVCAR-5,> 100 µM (inactive)
same,GI50,OVCAR-8,> 100 µM (inactive)
same,GI50,RPMI-8226,63 µM (inactive)
same,GI50,RXF 393,> 100 µM (inactive)
same,GI50,SF-268,> 100 µM (inactive)
same,GI50,SF-295,> 100 µM (inactive)
same,GI50,SF-539,> 100 µM (inactive)
same,GI50,SK-MEL-28,> 100 µM (inactive)
same,GI50,SK-MEL-5,> 100 µM (inactive)
same,GI50,SN12C,> 100 µM (inactive)
same,GI50,SNB-19,> 100 µM (inactive)
same,GI50,SNB-75,> 100 µM (inactive)
same,GI50,SNB-78,41.6 µM (inactive)
same,GI50,SR,> 100 µM (inactive)
same,GI50,SW-620,> 100 µM (inactive)
same,GI50,U-251,> 100 µM (inactive)
same,GI50,UACC-257,> 100 µM (inactive)
same,GI50,UACC-62,> 100 µM (inactive)
COC(=O)C(Cc1ccc(N(C)C)cc1)(NC(=O)c1ccccc1)P(=O)(OC)OC (stereo unspecified),GI50,A498,> 100 µM (inactive)
same,GI50,A549,> 100 µM (inactive)
same,GI50,ACHN,> 100 µM (inactive)
same,GI50,CAKI-1,> 100 µM (inactive)
same,GI50,CCRF-CEM,> 100 µM (inactive)
same,GI50,COLO 205,> 100 µM (inactive)
same,GI50,DMS-114,> 100 µM (inactive)
same,GI50,DMS-273,> 100 µM (inactive)
same,GI50,EKVX,> 100 µM (inactive)
same,GI50,HCC 2998,> 100 µM (inactive)
same,GI50,HCT-116,> 100 µM (inactive)
same,GI50,HCT-15,> 100 µM
same,GI50,HL-60,> 100 µM (inactive)
same,GI50,HOP-62,> 100 µM (inactive)
same,GI50,HOP-92,> 100 µM (inactive)
same,GI50,HT-29,> 100 µM (inactive)
same,GI50,IGROV-1,> 100 µM (inactive)
same,GI50,K562,> 100 µM (inactive)
same,GI50,KM-20L2,> 100 µM (inactive)
same,GI50,KM12,> 100 µM (inactive)
same,GI50,LOX IMVI,> 100 µM (inactive)
same,GI50,LXFL 529,> 100 µM (inactive)
same,GI50,M14,> 100 µM (inactive)
same,GI50,M19-MEL,> 100 µM (inactive)
same,GI50,MOLT-4,> 100 µM (inactive)
same,GI50,NCI-H226,> 100 µM (inactive)
same,GI50,NCI-H23,> 100 µM (inactive)
same,GI50,NCI-H460,> 100 µM (inactive)
same,GI50,NCI-H522,> 100 µM (inactive)
same,GI50,OVCAR-4,> 100 µM (inactive)
same,GI50,OVCAR-5,> 100 µM (inactive)
same,GI50,OVCAR-8,> 100 µM (inactive)
same,GI50,RPMI-8226,> 100 µM (inactive)
same,GI50,RXF 393,> 100 µM (inactive)
same,GI50,SF-268,> 100 µM (inactive)
same,GI50,SF-295,> 100 µM (inactive)
same,GI50,SF-539,> 100 µM (inactive)
same,GI50,SK-MEL-28,> 100 µM (inactive)
same,GI50,SK-MEL-2,> 100 µM (inactive)
same,GI50,SK-MEL-5,> 100 µM (inactive)
same,GI50,SK-OV-3,> 100 µM (inactive)
same,GI50,SN12C,> 100 µM (inactive)
same,GI50,SNB-19,> 100 µM (inactive)
same,GI50,SNB-75,> 100 µM (inactive)
same,GI50,SR,> 100 µM (inactive)
same,GI50,SW-620,> 100 µM (inactive)
same,GI50,TK-10,> 100 µM (inactive)
same,GI50,U-251,> 100 µM (inactive)
same,GI50,UACC-257,> 100 µM (inactive)
same,GI50,UACC-62,> 100 µM (inactive)
same,GI50,UO-31,> 100 µM (inactive)
same,GI50,XF498,> 100 µM (inactive)
C=C(Cl)Cc1c(O)c2c(c(O)c1CC(=C)Cl)C(=O)c1ccccc1C2=O,GI50,786-0,> 100 µM (inactive)
same,GI50,A549,> 100 µM (inactive)
same,GI50,ACHN,> 100 µM (inactive)
same,GI50,CAKI-1,> 100 µM (inactive)
same,GI50,CCRF-CEM,> 100 µM (inactive)
same,GI50,COLO 205,> 100 µM (inactive)
same,GI50,DLD-1,> 100 µM (inactive)
same,GI50,DMS-114,> 100 µM (inactive)
same,GI50,DMS-273,> 100 µM (inactive)
same,GI50,EKVX,> 100 µM (inactive)
same,GI50,HCC 2998,> 100 µM (inactive)
same,GI50,HCT-15,> 100 µM
same,GI50,HL-60,> 100 µM (inactive)
same,GI50,HOP-62,> 100 µM (inactive)
same,GI50,IGROV-1,> 100 µM (inactive)
same,GI50,K562,> 100 µM (inactive)
same,GI50,KM-20L2,> 100 µM (inactive)
same,GI50,LOX IMVI,> 100 µM (inactive)
same,GI50,LXFL 529,> 100 µM (inactive)
same,GI50,M14,> 100 µM (inactive)
same,GI50,MOLT-4,> 100 µM (inactive)
same,GI50,Malme-3M,> 100 µM (inactive)
same,GI50,OVCAR-4,> 100 µM (inactive)
same,GI50,OVCAR-5,> 100 µM (inactive)
same,GI50,OVCAR-8,> 100 µM (inactive)
same,GI50,RPMI-8226,> 100 µM (inactive)
same,GI50,SK-MEL-2,> 100 µM (inactive)
same,GI50,SK-MEL-5,> 100 µM (inactive)
same,GI50,SK-OV-3,> 100 µM (inactive)
same,GI50,SN12C,> 100 µM (inactive)
same,GI50,SR,> 100 µM (inactive)
same,GI50,SW-620,> 100 µM (inactive)
same,GI50,TK-10,> 100 µM (inactive)
same,GI50,U-251,> 100 µM (inactive)
same,GI50,UACC-62,> 100 µM (inactive)
same,GI50,XF498,> 100 µM (inactive)
CC(=O)NNc1nc(C)c(C(=O)NNC(=O)C(=O)Nc2c([N+](=O)[O-])ccc(C)c2C)s1,GI50,786-0,> 100 µM (inactive)
same,GI50,A498,31.6 µM (inactive)
same,GI50,A549,> 100 µM (inactive)
same,GI50,ACHN,> 100 µM (inactive)
same,GI50,CAKI-1,> 100 µM (inactive)
same,GI50,CCRF-CEM,31 µM (inactive)
same,GI50,COLO 205,> 100 µM (inactive)
same,GI50,DLD-1,> 100 µM (inactive)
same,GI50,DMS-114,> 100 µM (inactive)
same,GI50,DMS-273,> 100 µM (inactive)
same,GI50,EKVX,> 100 µM (inactive)
same,GI50,HCC 2998,> 100 µM (inactive)
same,GI50,HCT-116,> 100 µM (inactive)
same,GI50,HCT-15,> 100 µM
same,GI50,HL-60,> 100 µM (inactive)
same,GI50,HOP-62,> 100 µM (inactive)
same,GI50,HOP-92,> 100 µM (inactive)
same,GI50,HT-29,> 100 µM (inactive)
same,GI50,IGROV-1,> 100 µM (inactive)
same,GI50,K562,41.5 µM (inactive)
same,GI50,KM-20L2,> 100 µM (inactive)
same,GI50,KM12,> 100 µM (inactive)
same,GI50,LOX IMVI,78.3 µM (inactive)
same,GI50,LXFL 529,65.2 µM (inactive)
same,GI50,M14,> 100 µM (inactive)
same,GI50,M19-MEL,> 100 µM (inactive)
same,GI50,MOLT-4,43.6 µM (inactive)
same,GI50,Malme-3M,> 100 µM (inactive)
same,GI50,NCI-H226,> 100 µM (inactive)
same,GI50,NCI-H23,> 100 µM (inactive)
same,GI50,NCI-H460,> 100 µM (inactive)
same,GI50,NCI-H522,50.9 µM (inactive)
same,GI50,OVCAR-3,> 100 µM (inactive)
same,GI50,OVCAR-4,52.8 µM (inactive)
same,GI50,OVCAR-5,> 100 µM (inactive)
same,GI50,OVCAR-8,> 100 µM (inactive)
same,GI50,RPMI-8226,> 100 µM (inactive)
same,GI50,SF-268,90.6 µM (inactive)
same,GI50,SF-295,> 100 µM (inactive)
same,GI50,SF-539,> 100 µM (inactive)
same,GI50,SK-MEL-28,> 100 µM (inactive)
same,GI50,SK-MEL-2,> 100 µM (inactive)
same,GI50,SK-MEL-5,> 100 µM (inactive)
same,GI50,SN12C,> 100 µM (inactive)
same,GI50,SNB-19,> 100 µM (inactive)
same,GI50,SNB-78,> 100 µM (inactive)
same,GI50,SR,92.3 µM (inactive)
same,GI50,SW-620,76.9 µM (inactive)
same,GI50,TK-10,> 100 µM (inactive)
same,GI50,U-251,> 100 µM (inactive)
same,GI50,UACC-257,> 100 µM (inactive)
same,GI50,UACC-62,> 100 µM (inactive)
same,GI50,UO-31,> 100 µM (inactive)
same,GI50,XF498,> 100 µM (inactive)
